Measured values published in PubChem BioAssay (NCI).
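The compound was tested at five concentrations on cells cultured in 96-well plates, with a 48-hour exposure period. GI50 marks 50% less growth. TGI: total growth inhibition.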

Assays:
Assay in all cases: NCI tumour cell line growth inhibition, 48 h
[1] = tested on: MALME-3M melanoma
[2] = tested on: NCI-H460 lung
[3] = tested on: HOP-92 NSCLC
[4] = tested on: SK-MEL-2 melanoma
[5] = tested on: HCT-15 colon
[6] = tested on: OVCAR-8 ovarian
[7] = tested on: KM12 colon
[8] = tested on: SK-MEL-28 melanoma
[9] = tested on: HT29 colon
[10] = tested on: OVCAR-5 ovarian

C=C1CC2(C)CCC(OC(=O)C3(C)OC3C)C(C)(OC(C)=O)C2CC1=C(C)C (configuration not stated)
TGI [1]: > 100 µM | TGI [2]: > 100 µM | TGI [3]: > 100 µM | TGI [4]: > 100 µM | TGI [5]: > 100 µM | TGI [6]: > 100 µM | TGI [7]: > 100 µM | TGI [8]: > 100 µM | TGI [9]: > 100 µM | TGI [10]: > 100 µM

COc1ccc2c(c1)C(=O)/C(=C/c1ccccc1)C2
TGI [1]: > 100 µM | TGI [2]: > 100 µM | TGI [3]: > 100 µM | TGI [4]: > 100 µM | TGI [5]: > 100 µM | TGI [6]: > 100 µM | TGI [7]: > 100 µM | TGI [8]: > 100 µM | TGI [9]: > 100 µM | TGI [10]: > 100 µM

COc1cc(CN(C)N2C(=O)c3cccc4cc([N+](=O)[O-])cc(c34)C2=O)cc(OC)c1OC
TGI [1]: > 100 µM | TGI [2]: > 100 µM | TGI [3]: > 100 µM | TGI [4]: > 100 µM | TGI [5]: > 100 µM | TGI [6]: > 100 µM | TGI [7]: > 100 µM | TGI [8]: > 100 µM | TGI [9]: > 100 µM | TGI [10]: > 100 µM

O=c1n(Cc2ccccc2)c2ccccc2n1CC1CS1 (configuration not stated)
TGI [1]: > 100 µM | TGI [3]: > 100 µM | TGI [4]: > 100 µM | TGI [5]: > 100 µM | TGI [6]: > 100 µM | TGI [7]: > 100 µM | TGI [8]: > 100 µM | TGI [10]: > 100 µM

CCNc1nc2c(=O)n(C)c(=O)n(C)c2s1
TGI [1]: > 100 µM | TGI [2]: > 100 µM | TGI [3]: > 100 µM | TGI [4]: > 100 µM | TGI [5]: > 100 µM | TGI [6]: > 100 µM | TGI [7]: > 100 µM | TGI [8]: > 100 µM | TGI [9]: > 100 µM | TGI [10]: > 100 µM

CC12CCC3C(CCC4(O)C=CCCC34C=O)C1(O)CC(O)C2c1ccc(=O)oc1 (configuration not stated)
TGI [1]: 0.0877 µM | TGI [2]: 0.0716 µM | TGI [3]: 0.267 µM | TGI [4]: 0.295 µM | TGI [5]: 0.178 µM | TGI [6]: 0.193 µM | TGI [7]: 0.367 µM | TGI [8]: 0.799 µM | TGI [9]: 1.71 µM | TGI [10]: 0.638 µM

Cc1cc(C)c(S(=O)(=O)N(CCCCCCN)OCCCON(CCCCCCN)S(=O)(=O)c2c(C)cc(C)cc2C)c(C)c1
TGI [1]: 3.66 µM | TGI [2]: 3.07 µM | TGI [3]: 2.96 µM | TGI [4]: 3.48 µM | TGI [5]: 3.6 µM | TGI [6]: 3.34 µM | TGI [7]: 4.35 µM | TGI [9]: 3.05 µM | TGI [10]: 2.72 µM

CCOC(=O)c1csc(NC(=O)CCN2CCOCC2)n1
TGI [1]: > 100 µM | TGI [2]: > 100 µM | TGI [3]: > 100 µM | TGI [4]: > 100 µM | TGI [5]: > 100 µM | TGI [6]: 87.2 µM | TGI [8]: > 100 µM | TGI [9]: > 100 µM | TGI [10]: > 100 µM

O=C(NC/C=C/CO)c1ccccc1
TGI [1]: > 100 µM | TGI [2]: > 100 µM | TGI [4]: > 100 µM | TGI [5]: > 100 µM | TGI [6]: > 100 µM | TGI [7]: > 100 µM | TGI [8]: > 100 µM | TGI [9]: > 100 µM | TGI [10]: > 100 µM

COc1ccc(-c2nnc3c4ccccc4sn23)cc1
TGI [2]: > 100 µM | TGI [3]: > 100 µM | TGI [4]: > 100 µM | TGI [5]: > 100 µM | TGI [6]: > 100 µM | TGI [7]: > 100 µM | TGI [8]: > 100 µM | TGI [9]: > 100 µM | TGI [10]: > 100 µM

Fc1cc(C2=Nn3c(nnc3-c3cc(F)c(Cl)cc3Cl)SC2)c(Cl)cc1Cl
GI50 [1]: 28.4 µM | TGI [1]: 66.7 µM | GI50 [2]: 17.6 µM | TGI [2]: > 100 µM | GI50 [3]: 11.3 µM | TGI [3]: > 100 µM | GI50 [4]: 65.3 µM | TGI [4]: > 100 µM | GI50 [5]: 20.2 µM | TGI [5]: 70.2 µM | GI50 [6]: 26 µM | TGI [6]: 97.3 µM | GI50 [7]: 28.5 µM | TGI [7]: 86.8 µM | GI50 [8]: 21.5 µM | TGI [8]: 54.3 µM | GI50 [9]: 20.1 µM | TGI [9]: 56.3 µM | GI50 [10]: 56.8 µM | TGI [10]: > 100 µM

O=C1CNC(=O)N1
TGI [1]: > 1120 µM | TGI [2]: > 1120 µM | TGI [3]: > 11.2 µM | TGI [4]: > 1120 µM | TGI [5]: > 1120 µM | TGI [6]: > 1120 µM | TGI [7]: > 1120 µM | TGI [8]: > 1120 µM | TGI [9]: > 1120 µM | TGI [10]: > 1120 µM

CC1(C)CCCC2(C)[C@@H]1CC[C@]13C[C@](C)(CC[C@@H]21)[C@@H]3CO (some centres not stated)
TGI [1]: > 100 µM | TGI [2]: > 100 µM | TGI [3]: > 100 µM | TGI [5]: > 100 µM | TGI [7]: > 100 µM | TGI [8]: > 100 µM | TGI [9]: > 100 µM | TGI [10]: > 100 µM
